Series [1] in a line: Local administration of radiolabelled TTA, presence in coronary arteries. The format is in vivo. Particulars: administered locally in two extra pigs; after 4 and 6 weeks.
For series [2], the system named is strains of Salmonella typhimurium. Nature of the series: Tests for mutagenic activity in bacterial strains. Format: cell-based. To be noted: S. typhimurium; 3–1000 mg/plate (TTA), 2–5000 mg/plate (TSA). An excerpt:
(§1) Tests for mutagenic activity have been performed by Covance Laboratories Limited, England. […] Furthermore, TTA was not mutagenic when tested in mouse lymphoma cells […] L5178Y.

For series [3], the system named is strains of Escherichia coli. Put plainly: Tests for mutagenic activity in bacterial strains. The format is cell-based. Particulars: E. coli; 3–1000 mg/plate (TTA), 2–5000 mg/plate (TSA).
Text: as §1

A short description of series [4]: Plasma lipid lowering on feeding moderate doses to animals. Format: in vivo, rats, mice, rabbits and dogs. Particulars: for potency in lowering plasma triacylglycerols and cholesterol: compared with polyunsaturated fatty acids like EPA. The text has this:
(§2) Feeding moderate doses of TTA to animals like rats, mice, rabbits and dogs decreased both plasma cholesterol and triacylglycerol levels within days of treatment.

Series [5] deals with cultured Chinese hamster ovary cells. Put plainly: Chromosomal aberrations in cultured Chinese hamster ovary cells. Format: cell-based. To be noted: CHO cells, doses tested 12–140 mg/ml.
The nature of series [6]: 28 days toxicity study in dogs (GLP). The format is in vivo. The text has this:
A 28 days toxicity study in dogs according to GLP guide-lines has been performed by Corning Hazleton (Europe), England. […] Some lipid related parameters were lowered in the animals given high dosages. This is consistent with the pharmacological activity of TTA.

For series [7], the system named is human smooth muscle cells (SMC). Nature of the series: Proliferation of cultured smooth muscle cells (cell counting). To be noted: 100 μM with BSA, cells counted after 3 and 6 days, FIG. 3. Format: cell-based. As to the method:
SMC are human smooth muscle cells available from American Type Culture Collection (Type 1999-CRL). The SMC cells were cultured in bottles (75 cm^2) in Ham's F12K medium. 24 hours after inoculation, the fatty acids and BSA in a molar ratio of 1:2.5 were added to the medium, i.e. to a final concentration of palmitic acid and TTA of 100 μM. After 3 and 6 days the cells were trypsinated, and the number of cells determined by using a light microscopy with counting chambers (Leitz Wetzler).

Series [8] can be described thus: Total plasma homocysteine in rats given TTA. The format is in vivo. To be noted: Male Wistar rats, 300 mg TTA per kg body weight per day in 10 days. As to the method: Increased levels of homocysteine, i.e. hyperhomocysteinemia has been proposed to be associated with arterial diseases, and we thus measured the levels of homocysteine in plasma samples from Male Wistar rats given 300 mg TTA per kg body weight per day in 10 days.
Total plasma homocysteine was measured by a fully automated fluorescence assay. 30 μl plasma was reduced by 30 μl NaBH4/DMSO solution (6 mol/L). After 1.5 min 20 μl of the fluorescence reagent monobromobimane (25 mmol/L) in acetonitrile was added and allowed to react for 3 min. 20 μl of the sample was then immediately analysed with HPLC by injection on a strong cation-exchange column, and then by column switching into a cyclohexyl silica column. The SCX column was eluted isocratically and the CH column was eluted with a linear methanol gradient (17–35% in 5 min) in 20 mmol/L formate buffer. The homocysteine was eluted at a retention time of 4.5 min.

The subject of series [9] is mouse lymphoma cells, L5178Y. Put plainly: Mutagenicity in mouse lymphoma cells. The format is cell-based. To be noted: 2.5–50 mg/ml.
Text: as §1

The subject of series [10] is restenosis (iliac artery). Nature of the series: Prevention of restenosis in rabbits given TTA orally, quantitative angiography after iliac balloon angioplasty. To be noted: for diameter artery (Ds) / dilatation/stenosis (Dr − Ds)/Dr / reference diameter (Dr): TTA 800 mg daily oral. The format is in vivo, Chinchilla (Chbb:CH) rabbits. As to the method:
Fourteen Chinchilla (Chbb:CH) rabbits of either sex were randomised either to receive supplement with TTA fatty acids 800 mg daily (mean weight 3.6±0.09 kg) or to placebo (mean weight 3.5±0.47 kg).
The animals were pre-treated with TTA given as oral supplements, mixed with daily food pellets, for three weeks to ensure accumulation of the fatty acid analogues in the tissues.
After premedication with 0.5 ml fentanyl (0.315 mg/ml) and fluanisone (10 mg/ml) (Hypnorm®) intramuscularly, the rabbits were anaesthetised by administering diazepam 4 mg/kg intraperitoneally and maintained by additional 0.3–0.4 ml of a 1:1 mixture of Hypnorm® and diazepam, usually necessary once during the procedure.
After local infiltration of the skin by lignocaine (Xylocaine®) and surgical cut-down, the right carotid artery was cannulated by a 6F sheath. A bolus of 100 U/kg of heparin was administered intraarterially. Before the angioplasty, an angiography was performed in the frontal view by injecting 3 ml of ioxaglate (Hexabrix®) as contrast medium via a Berman® catheter.
An angioplasty balloon catheter (Express®) of 2.5 mm was positioned in the proximal part of each iliac artery and balloon angioplasty was performed with 2 balloon inflations at the same site in each artery, at 8 and 12 atmosphere for 30 seconds each to overstretch the artery. The balloon marker, on the middle of the 20 mm long balloon, was placed over the ilio-sacral joint, thus ensuring that the balloon was positioned at identical sites. Inflation was performed using a pressure manometer (Encore® 26 inflation device, Scimed, Boston Scientific corporation).
A further angiography was performed in the same frontal view as the first angiography to assure artery patency. The carotid artery was ligated and the skin was closed with ligatures. Buprenorfin 0.3 mg (Temgesic®) and penicillin were given subcutaneous once daily for the first days.
(§3) A follow-up angiography was performed in the same frontal view after 10 weeks, following the same procedure as indicated above, by using ioxaglate (Hexabrix®) as contrast medium. The sheath was now inserted in the left carotid artery. Intravascular ultrasound was performed to quantitate wall thickness and lumen diameter. After angiography a laparotomy was performed and the abdominal aorta was cannulated with an 18G infusion-needle. The animals were euthanised by giving overdose pentobarbital intraarterially via the sheath in the left carotid artery.
The frames with maximal opacification from baseline angiographies (before and after dilatation), as well as from the follow-up angiography were stored for subsequent quantitative analysis. Arterial diameter before and after dilatation as well as the balloon to artery ratio were measured. The minimal luminal diameter, reference diameter and stenosis were determined. All measurements were performed with a digital electronic calliper (Sandhill, model EC-1)(12). A balloon angioplasty catheter (Express® 2.5 mm), placed on the abdomen and dilated at 8 atmospheres (rated balloon diameter 2.5 mm) served for calibration.
Acute gain: minimal luminal diameter (MLD) post dilatation minus diameter artery before dilatation. Late loss: MLD post dilatation minus MLD at control angiography. Loss index: late loss divided by acute gain.

Series [11] is described as follows: Hepatic and plasma fatty acid composition after TTA administration to rats. Format: in vivo. To be noted: 12 weeks. The text has this: Thus the compound of the present invention modifies the composition of the lipids in various tissues.
Series [12] relates to restenosis (coronary artery, LAD or LCx). Nature of the series: Prevention of restenosis in mini pigs, local administration of TTA, quantitative angiography and histology. Format: in vivo. To be noted: minipigs; for Luminal diameter: local TTA 3 x 0.5 ml (0.33 mg/ml). The text has this: (§4) Various local drug delivery systems have been developed to enable local application of pharmacological agents in conjunction with PTCA. In this study 20 minipigs were randomised to placebo or active treatment with the fatty acid analogue tetradecylthioaceticacid acid (TTA) via a Transport® multiphorous angioplasty balloon catheter. This catheter has a sleeve embracing the balloon and the drug is delivered through a separate lumen connected to the sleeve which has multiple holes.
(§5) Coronary balloon angioplasty injury using an oversized balloon was performed to the LAD or LCx followed by 3 bolus deliveries of 0.5 ml (0.33 mg/ml TTA) of active drug/placebo. Quantitative angiography as indicated in the preceding sections was performed before and after injury, and after 4 weeks follow-up. Subsequently the pigs were sacrificed, perfusion-fixed with glutaraldehyde and the vessels prepared for histology with computer assisted planimetry.

The next series deals with restenosis. Nature of the series: IVUS (intravascular ultrasound) after balloon injury. The format is in vivo, minipigs. As to the method:
as §3, §4, §5
The ICUS (intracoronary ultrasound) results were consistent with the angiography data.

Series [13] has as its system mitochondrial β-oxidation system. Put plainly: Mitochondrial β-oxidation.
Text: The studies have shown that TTA has properties very similar to natural fatty acids, the main difference being that TTA is not oxidised by the mitochondrial β-oxidation system.
as §2

[14] abbreviates: control angiography (follow-up).
The mark [15] stands for this setting: moderate doses, within days of treatment.

Turning to `CCCCCCCCCCCCCCSC[14C](=O)O` [1-^14C-TTA], the “presence of active drug in the coronary arteries” value in [1] was “confirmed the presence of active drug”.

As to `CCCCCCCCCCCCCC[Se]CC(=O)O` [TSA, tetradecylselenioacetic acid], the induction of mutations entry in [2] and in series [3] was “did not induce mutations” each time. The “potency in lowering plasma triacylglycerols and cholesterol” value in series [4] is on record as “far more potent”. Besides, in series [5], the chromosomal aberrations result is listed as “no aberrations were induced”.

With Tetradecylthioacetic acid [TTA], in series [6] (500 mg/kg/day), the body weight result was “body weight loss”. The lipid related parameters entry in series [6] (animals given high dosages) was “lowered”. Further, the evidence of toxicity result in series [6] (dose levels of 50 or 500 mg/day/kg) is listed as “no evidence of toxicity”. Moreover, the “tolerability of oral administration” value in series [6] (oral, dose levels up to 500 mg/kg/day) was “generally well tolerated”. Besides, the “growth of smooth muscle cells” value in series [7] is reported as “inhibiting effect”. Further, the “Plasma concentration of homocysteine” value in [8] was determined as 5.4 ± 1.0 µmol/L. The mutagenicity result in series [9] is given as “not mutagenic”. This molecule gave a late loss in [10] (MLD post dilatation minus MLD at control angiography) of 0.76 ± 0.38. The acute gain in [10] (MLD post dilatation minus diameter artery before dilatation) was 0.48 ± 0.22 mm. For the same molecule, in series [10] (after dilatation), the “diameter artery (Ds)” value is 2.36 ± 0.19 mm, the “dilatation/stenosis (Dr − Ds)/Dr” value is −31.2 and the “reference diameter (Dr)” value was 1.80 ± 0.17 mm. In [10] (before dilatation), the “diameter artery (Ds)” value came to 1.91 ± 0.18 mm and the “reference diameter (Dr)” value was determined as 1.91 ± 0.18 mm. For the same molecule, in series [10] (setting [14]), the “diameter artery (Ds)” value was 1.60 ± 0.26 mm, the “dilatation/stenosis (Dr − Ds)/Dr” value is on record as 23.5 and the “reference diameter (Dr)” value came out at 2.07 ± 0.15 mm. Further, in [10] (follow-up after angioplasty, oral TTA), the “decrease in artery diameter at follow-up” value is listed as “inhibited the decrease in artery diameter”. Besides, the loss index in [10] (late loss divided by acute gain) is 1.53 ± 0.46. Also, in [11], the “hepatic and plasma content of monounsaturated fatty acids (mainly oleic acid)” value is given as “nearly doubled”; the “polyunsaturated fatty acids (mainly linoleic acid and DHA)” value is recorded as “decreased”. In addition, the induction of mutations entry in series [2] is “did not induce mutations”. Also, the induction of mutations result in series [3] was “did not induce mutations”. Moreover, the Luminal diameter in series [12] (after PTCA) amounted to 3.2 mm. Further, in series [12] (at follow-up), the Luminal diameter is 2.2 mm. The molecule also yielded a Luminal diameter in series [12] (before PTCA) of 2.6 mm. Moreover, the maximal intimal thickness entry in [12] (treated group with respect to the placebo group) is recorded as “unchanged”. Also, in the series on restenosis, the Area site turned out to be 0.61 ± 0.152 mm^2, the Max. diameter site was determined as 2.87 ± 0.408 mm and the Minimal diameter site came to 2.76 ± 0.381 mm. In [4], the “potency in lowering plasma triacylglycerols and cholesterol” value is listed as “far more potent”. Also, in series [4] (setting [15]), the plasma cholesterol levels result is recorded as “decreased” and the plasma triacylglycerol levels entry was “decreased”. Moreover, in series [13], the “oxidation by the mitochondrial β-oxidation system” value is given as “not oxidised”. In [5], the chromosomal aberrations entry is reported as “no aberrations were induced”.
